# Reference: patent US11306092B2, “Amino indole compounds useful as TLR inhibitors” (BRISTOL-MYERS SQUIBB COMPANY, priority 2017, dated 2022)
# Legend:
# Format in all cases: cell-based
# human TLR7 = molecular target: T1, human TLR7 (Homo sapiens, UniProt Q9NYK1); experiment: TLR7 inhibition reporter assay (HEK-Blue SEAP reporter); details: HEK-Blue cells overexpressing human TLR7; gardiquimod 7.5 μM; 22 hour incubation
# T1 construct: host or cells: HEK-Blue cells
# T1 sequence (Q9NYK1 27-1049): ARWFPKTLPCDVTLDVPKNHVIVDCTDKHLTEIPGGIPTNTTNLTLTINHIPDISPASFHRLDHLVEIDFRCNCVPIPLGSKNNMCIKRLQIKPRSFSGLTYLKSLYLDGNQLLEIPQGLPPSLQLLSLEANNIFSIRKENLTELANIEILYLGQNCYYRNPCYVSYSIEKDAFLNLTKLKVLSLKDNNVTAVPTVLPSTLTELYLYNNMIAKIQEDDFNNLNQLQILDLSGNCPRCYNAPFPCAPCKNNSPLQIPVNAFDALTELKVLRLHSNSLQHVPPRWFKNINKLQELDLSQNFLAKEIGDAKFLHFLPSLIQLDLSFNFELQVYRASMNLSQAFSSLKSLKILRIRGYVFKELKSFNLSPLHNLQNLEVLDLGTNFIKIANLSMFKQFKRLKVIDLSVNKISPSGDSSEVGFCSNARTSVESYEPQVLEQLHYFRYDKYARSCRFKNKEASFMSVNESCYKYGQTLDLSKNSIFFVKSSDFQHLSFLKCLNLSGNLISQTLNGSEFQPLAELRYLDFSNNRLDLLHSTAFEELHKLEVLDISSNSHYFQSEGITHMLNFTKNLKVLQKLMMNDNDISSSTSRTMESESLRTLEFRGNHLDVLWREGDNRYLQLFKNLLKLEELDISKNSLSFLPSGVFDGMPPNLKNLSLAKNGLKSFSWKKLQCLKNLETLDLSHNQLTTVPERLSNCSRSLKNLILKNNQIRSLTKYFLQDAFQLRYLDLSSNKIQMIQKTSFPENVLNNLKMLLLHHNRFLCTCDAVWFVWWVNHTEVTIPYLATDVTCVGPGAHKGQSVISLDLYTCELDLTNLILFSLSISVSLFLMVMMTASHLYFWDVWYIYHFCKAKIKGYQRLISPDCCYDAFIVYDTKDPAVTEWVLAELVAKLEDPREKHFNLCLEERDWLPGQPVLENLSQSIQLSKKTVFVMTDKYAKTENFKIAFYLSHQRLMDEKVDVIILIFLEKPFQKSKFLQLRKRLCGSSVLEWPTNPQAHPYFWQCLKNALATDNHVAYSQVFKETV
# Method in brief: (§1)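 HEK-Blue cells overexpressing human TLR7, TLR8 or TLR9 carry a SEAP reporter driven by NF-κB/AP-1 sites. Compounds (0.05 nM–50 μM) were preincubated 30 min at room temperature, then cells were stimulated with gardiquimod 7.5 μM (TLR7), R848 15.9 μM (TLR8) or ODN2006 5 nM (TLR9) for 22 h at 37 °C.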
# human TLR8 = molecular target: T2, human TLR8 (Homo sapiens, UniProt Q9NR97); experiment: TLR8 inhibition reporter assay (HEK-Blue SEAP reporter); details: HEK-Blue cells overexpressing human TLR8; R848 15.9 μM; 22 hour incubation
# T2 construct: host or cells: HEK-Blue cells
# T2 sequence (Q9NR97 27-1041): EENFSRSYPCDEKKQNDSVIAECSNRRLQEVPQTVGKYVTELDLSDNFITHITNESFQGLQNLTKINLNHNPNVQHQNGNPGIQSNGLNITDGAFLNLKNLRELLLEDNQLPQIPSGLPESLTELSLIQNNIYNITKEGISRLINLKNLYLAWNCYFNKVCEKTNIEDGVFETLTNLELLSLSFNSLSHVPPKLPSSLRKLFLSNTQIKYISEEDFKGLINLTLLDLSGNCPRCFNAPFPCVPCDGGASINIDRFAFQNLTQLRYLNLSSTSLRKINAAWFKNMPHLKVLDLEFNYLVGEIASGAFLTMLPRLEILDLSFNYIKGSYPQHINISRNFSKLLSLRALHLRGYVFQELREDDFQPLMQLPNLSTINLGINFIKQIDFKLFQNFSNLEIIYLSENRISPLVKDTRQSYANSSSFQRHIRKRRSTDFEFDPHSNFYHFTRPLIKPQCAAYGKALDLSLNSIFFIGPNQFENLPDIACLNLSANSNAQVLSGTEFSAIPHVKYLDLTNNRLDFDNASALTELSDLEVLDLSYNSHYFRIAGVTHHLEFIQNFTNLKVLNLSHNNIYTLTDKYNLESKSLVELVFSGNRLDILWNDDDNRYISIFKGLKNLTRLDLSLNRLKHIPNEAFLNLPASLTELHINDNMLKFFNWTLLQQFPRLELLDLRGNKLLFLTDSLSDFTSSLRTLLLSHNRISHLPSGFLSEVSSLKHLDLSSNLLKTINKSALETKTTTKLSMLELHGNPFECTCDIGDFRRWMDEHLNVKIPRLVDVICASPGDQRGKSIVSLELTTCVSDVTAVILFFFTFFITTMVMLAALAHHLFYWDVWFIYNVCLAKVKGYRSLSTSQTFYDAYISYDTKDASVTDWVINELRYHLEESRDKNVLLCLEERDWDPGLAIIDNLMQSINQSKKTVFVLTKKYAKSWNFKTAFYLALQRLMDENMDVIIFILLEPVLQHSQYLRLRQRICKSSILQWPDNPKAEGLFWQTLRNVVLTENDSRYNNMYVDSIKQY
# Method in brief: as §1
# human TLR9 = molecular target: T3, human TLR9 (Homo sapiens, UniProt Q9NR96); experiment: TLR9 inhibition reporter assay (HEK-Blue SEAP reporter); details: HEK-Blue cells overexpressing human TLR9; ODN2006 5 nM; 22 hour incubation
# T3 construct: host or cells: HEK-Blue cells
# T3 sequence (Q9NR96 26-1032): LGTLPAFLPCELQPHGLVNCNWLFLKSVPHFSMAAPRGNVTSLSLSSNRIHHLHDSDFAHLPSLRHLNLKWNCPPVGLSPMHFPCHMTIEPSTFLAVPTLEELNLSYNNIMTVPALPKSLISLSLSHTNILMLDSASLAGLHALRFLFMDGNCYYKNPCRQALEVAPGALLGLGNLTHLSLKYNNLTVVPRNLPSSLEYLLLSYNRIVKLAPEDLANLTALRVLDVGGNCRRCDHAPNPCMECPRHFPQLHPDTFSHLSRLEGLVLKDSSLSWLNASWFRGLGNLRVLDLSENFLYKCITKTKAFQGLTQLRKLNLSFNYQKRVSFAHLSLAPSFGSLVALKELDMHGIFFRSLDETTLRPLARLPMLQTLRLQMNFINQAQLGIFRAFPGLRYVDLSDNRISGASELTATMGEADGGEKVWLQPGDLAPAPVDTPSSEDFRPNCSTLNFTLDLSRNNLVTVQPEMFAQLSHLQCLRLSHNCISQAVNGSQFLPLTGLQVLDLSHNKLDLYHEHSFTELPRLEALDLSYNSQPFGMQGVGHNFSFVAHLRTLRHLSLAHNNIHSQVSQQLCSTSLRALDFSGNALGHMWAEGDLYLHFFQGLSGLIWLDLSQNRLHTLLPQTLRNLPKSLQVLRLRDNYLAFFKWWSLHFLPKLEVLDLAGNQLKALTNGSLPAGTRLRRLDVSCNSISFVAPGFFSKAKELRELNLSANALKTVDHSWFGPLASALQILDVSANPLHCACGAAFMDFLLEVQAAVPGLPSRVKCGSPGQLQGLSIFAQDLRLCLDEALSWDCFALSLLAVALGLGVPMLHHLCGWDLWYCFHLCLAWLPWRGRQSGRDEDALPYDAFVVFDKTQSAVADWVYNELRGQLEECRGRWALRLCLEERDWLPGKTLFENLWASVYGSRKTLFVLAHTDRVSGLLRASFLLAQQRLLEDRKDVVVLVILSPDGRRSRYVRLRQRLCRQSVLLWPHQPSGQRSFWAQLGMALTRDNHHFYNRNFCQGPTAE
# Method in brief: as §1
SMILES,IC50 (human TLR7) [nM],IC50 (human TLR8) [nM],IC50 (human TLR9) [nM]
"Cc1c(-c2ccnc3[nH]ccc23)[nH]c2ccc(N3CCN(C4CCN(CC(C)C)CC4)CC3)cc12 [Example 158, 4-(5-(4-(1-isobutylpiperidin-4-yl)piperazin-1-yl)-3-methyl-H-indol-2-yl)-1H-pyrrolo[2,3-b]pyridine]",12500,45400,198
"CCc1c(-c2ccnc(OC)c2)[nH]c2ccc(N3CCN(C4CCN(CC(C)C)CC4)CC3)cc12 [Example 160, 3-ethyl-5-(4-(1-isobutylpiperidin-4-yl)piperazin-1-yl)-2-(2-methoxypyridin-4-yl)-1H-indole]",106,14,470
"CCc1c(-c2ccnc(OC)c2)[nH]c2ccc(N3CCN(C4CC(C)(C)NC(C)(C)C4)CC3)cc12 [Example 161, 3-ethyl-2-(2-methoxypyridin-4-yl)-5-(4-(2,2,6,6-tetramethylpiperidin-4-yl)piperazin-1-yl)-lH-indole]",63,8.1,243
"COc1ccc(-c2[nH]c3ccc(N4CCN(C5CCN(C)CC5)CC4)cc3c2C(C)C)cc1OC [Example 162, 2-(3,4-dimethoxyphenyl)-3-isopropyl-5-(4-(1-methylpiperidin-4-yl)piperazin-1-yl)-1H-indole]",30,7.9,935
"CCc1c(-c2ccc(OC)c(OC)c2)[nH]c2ccc(N3CCN(C4CCN(CC)CC4)CC3)cc12 [Example 163, 2-(3,4-dimethoxyphenyl)-3-ethyl-5-(4-(1-ethylpiperidin-4-yl)piperazin-1-yl)-1H-indole]",68,9.3,709
"COc1ccc(-c2[nH]c3ccc(N4CCN(C5CCN(C(C)C)CC5)CC4)cc3c2C)cc1OC [Example 164, 2-(3,4-dimethoxyphenyl)-5-(4-(1-isopropylpiperidin-4-yl)piperazin-1-yl)-3-methyl-1H-indole]",7090,> 50000,577
"COc1ccc(-c2[nH]c3ccc(N4CCN(C5CCN(CC(C)C)CC5)CC4)cc3c2C)cc1OC [Example 170, 2-(3,4-dimethoxyphenyl)-5-(4-(1-isobutylpiperidin-4-yl)piperazin-1-yl)-3-methyl-1H-indole]",19100,48400,465
"COc1ccc(-c2[nH]c3ccc(N4CCN(C5CC(C)(C)NC(C)(C)C5)CC4)cc3c2C)cc1OC [Example 171, 2-(3,4-dimethoxyphenyl)-3-methyl-5-(4-(2,2,6,6-tetramethylpiperidin-4-yl)piperazin-1-yl)-1H-indole]",8990,32200,379
"CCc1c(-c2ccc(OC)c(OC)c2)[nH]c2ccc(N3CCN(C4CCN(C)CC4)CC3(C)C)cc12 [Example 172, 2-(3,4-dimethoxyphenyl)-5-(2,2-dimethyl-4-(1-methylpiperidin-4-yl)piperazin-1-yl)-3-ethyl-1H-indole]",96,131,478

# Now from value to compound:
IC50 (human TLR7) [nM],IC50 (human TLR8) [nM],IC50 (human TLR9) [nM],SMILES
4230,635,559,"CCc1c(-c2ccnc3[nH]ccc23)[nH]c2ccc(N3CCN(C4CCN(C(C)C)CC4)CC3)cc12 [Example 157, 4-(3-ethyl-5-(4-(1-isopropylpiperidin-4-yl)piperazin-1-yl)-1H-indol-2-yl)-1H-pyrrolo[2,3-b]pyridine]"
5640,6010,684,"CCc1c(-c2ccnc3[nH]ncc23)[nH]c2ccc(N3CCN(C4CCN(C(C)C)CC4)CC3)cc12 [Example 159, 4-(3-ethyl-5-(4-(1-isopropylpiperidin-4-yl)piperazin-1-yl)-1H-indol-2-yl)-1H-pyrazolo[3,4-b]pyridine]"
5900,9400,685,"CCc1c(-c2ccnc3c2ccn3C)[nH]c2ccc(N3CCN(C4CCN(C(C)C)CC4)CC3)cc12 [Example 165, 4-(3-ethyl-5-(4-(1-isopropylpiperidin-4-yl)piperazin-1-yl)-1H-indol-2-yl)-1-methyl-H-pyrrolo[2,3-b] pyridine]"
6.2,0.05,318,"CC(C)c1c(-c2ccnc3[nH]ccc23)[nH]c2ccc(N3CCN(C4CCN(C(C)C)CC4)CC3)cc12 [Example 166, 4-(3-isopropyl-5-(4-(1-isopropylpiperidin-4-yl)piperazin-1-yl)-1H-indol-2-yl)-1H-pyrrolo[2,3-b]pyridine]"
> 50000,48000,259,"CC(C)c1c(-c2ccnc3[nH]ncc23)[nH]c2ccc(N3CCN(C4CCN(C(C)C)CC4)CC3)cc12 [Example 168, 4-(3-isopropyl-5-(4-(1-isopropylpiperidin-4-yl)piperazin-1-yl)-1H-indol-2-yl)-1H-pyrazolo[3,4-b]pyridine]"
61,10,442,"CCc1c(-c2ccc(OC)c(OC)c2)[nH]c2ccc(N3CCN(C4CCN(C(C)C)CC4)CC3)cc12 [Example 169, 2-(3,4-dimethoxyphenyl)-3-ethyl-5-(4-(1-isopropylpiperidin-4-yl)piperazin-1-yl)-1H-indole]"
